These results are taken from patent US9169260B2 (MERCK SHARP & DOHME CORP., priority 2011, dated 2015).

In general, IC50 refers to the concentration at which inhibition is half-maximal.

In one experiment the target is GST tagged IRAK-4 (Homo sapiens (Human), UniProt Q9NWZ3). Description: IRAK-4 Kinase Assay (IMAP fluorescence polarization). In kind it is biochemical. To be noted: 100 μM ATP, 30 minutes at 25° C. Summed up: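 Activity was read by IMAP fluorescence polarization, where phosphopeptide binding to M(III) nanoparticles raises FP. The 30-minute, 25° C reaction used 100 μM ATP, 100 nM RP7030 substrate and 0.5 nM GST-IRAK-4 in pH 7.2 Tris buffer with MgCl2, DTT and Tween 20.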
Sequence of GST tagged IRAK-4 (Q9NWZ3 whole entry): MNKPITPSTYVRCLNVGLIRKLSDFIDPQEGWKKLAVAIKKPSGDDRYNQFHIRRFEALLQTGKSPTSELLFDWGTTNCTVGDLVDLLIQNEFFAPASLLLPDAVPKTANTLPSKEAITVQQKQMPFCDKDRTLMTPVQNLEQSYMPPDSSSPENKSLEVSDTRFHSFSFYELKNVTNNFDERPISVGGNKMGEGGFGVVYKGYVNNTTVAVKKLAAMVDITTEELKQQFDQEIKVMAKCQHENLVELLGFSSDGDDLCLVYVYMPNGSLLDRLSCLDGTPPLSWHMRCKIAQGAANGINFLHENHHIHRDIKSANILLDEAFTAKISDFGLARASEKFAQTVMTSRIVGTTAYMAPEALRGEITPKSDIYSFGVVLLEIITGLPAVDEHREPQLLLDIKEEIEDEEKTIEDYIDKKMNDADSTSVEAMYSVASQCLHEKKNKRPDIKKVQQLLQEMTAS
A general note: In fluorescence polarisation assays a small probe gives low polarisation when free and higher when bound to something large.
Compound `Cc1ccc(-n2nc(C3CCN(Cc4ccsc4)CC3)cc2NC(=O)c2cnn3cccnc23)cc1` [Example 223, N-{1-(4-methylphenyl)-3-[1-(thiophen-3-ylmethyl)piperidin-4-yl]-1H-pyrazol-5-yl}pyrazolo[1,5-a]pyrimidine-3-carboxamide] gave a half-inhibitory concentration (IC50) of less than 0.1 µM.

`CC(C)N1CCC(c2cc(NC(=O)c3cnn4cccnc34)n(-c3ccc(C4CC4)cc3F)n2)CC1` [Example 74, N-(1-(4-cyclopropyl-2-fluorophenyl)-3-(1-isopropylpiperidin-4-yl)-1H-pyrazol-5-yl)pyrazolo[1,5-a]pyrimidine-3-carboxamide] returned an IC50 of less than 0.1 µM.

`Cc1ccc(-n2nc(N3CCN(C4CCCCCC4)CC3)cc2NC(=O)c2cnn3cccnc23)nc1` [Example 322, N-[3-(4-cycloheptylpiperazin-1-yl)-1-(5-methylpyridin-2-yl)-1H-pyrazol-5-yl]pyrazolo[1,5-a]pyrimidine-3-carboxamide]: the 50% inhibitory concentration (IC50) was less than 0.1 µM.

Turning to `Cc1ccc(-n2nc(C3CCNCC3)cc2NC(=O)c2cnn3cccnc23)nc1` [Example 152, N-(1-(5-methylpyridin-2-yl)-3-(piperidin-4-yl)-1H-pyrazol-5-yl)pyrazolo[1,5-a]pyrimidine-3-carboxamide], the IC50 was less than 0.1 µM.

`COc1ccc(-n2nc(C3CCNCC3)cc2NC(=O)c2cnn3cccnc23)c(F)c1` [Example 61, N-(1-(2-fluoro-4-methoxyphenyl)-3-(piperidin-4-yl)-1H-pyrazol-5-yl)pyrazolo[1,5-a]pyrimidine-3-carboxamide] gave an IC50 of less than 0.1 µM.

Regarding `Cc1ccc(-n2nc(C3CCN(CC(C)C)CC3)cc2NC(=O)c2cnn3cccnc23)cc1` [Example 219, N-{1-(4-methylphenyl)-3-[1-(2-methylpropyl)piperidin-4-yl]-1H-pyrazol-5-yl}pyrazolo[1,5-a]pyrimidine-3-carboxamide], the half-maximal inhibitory concentration (IC50) is less than 0.1 µM.

Take `Cc1ccc(-n2nc(C3CCN(C4CCC(C#N)CC4)CC3)cc2NC(=O)c2cnn3cccnc23)cc1` (stereo not shown) [Example 253, N-{3-[1-(4-cyanocyclohexyl)piperidin-4-yl]-1-(4-methylphenyl)-1H-pyrazol-5-yl}pyrazolo[1,5-a]pyrimidine-3-carboxamide]: the half-maximal inhibitory concentration (IC50) was less than 0.1 µM.

`CCN(CC)CCC(=O)N1CCC(c2cc(NC(=O)c3cnn4cc(Br)cnc34)n(-c3ccc(C)cc3)n2)CC1` [Example 114, 6-bromo-N-(3-(1-(3-(diethylamino)propanoyl)piperidin-4-yl)-1-(p-tolyl)-1H-pyrazol-5-yl)pyrazolo[1,5-a]pyrimidine-3-carboxamide] returned a half-inhibitory concentration (IC50) of less than 0.1 µM.

Compound `CS(=O)(=O)N1CCC(c2cc(NC(=O)c3cnn4cccnc34)n(-c3ccc(C4CC4)cc3)n2)CC1` [Example 53, N-(1-(4-cyclopropylphenyl)-3-(1-(methylsulfonyl)piperidin-4-yl)-1H-pyrazol-5-yl)pyrazolo[1,5-a]pyrimidine-3-carboxamide] displayed an IC50 of less than 0.1 µM.

Turning to `Cc1ccc(-n2nc(N3CCOCC3)cc2NC(=O)c2cnn3cccnc23)nc1` [Example 202, N-(1-(5-methylpyridin-2-yl)-3-morpholino-1H-pyrazol-5-yl)pyrazolo[1,5-a]pyrimidine-3-carboxamide], the IC50 was less than 0.1 µM.

The compound `CC(C)(CN)c1ccc(-n2nc(C3CCN(S(C)(=O)=O)CC3)cc2NC(=O)c2cnn3cccnc23)nc1` [Example 158, N-(1-(5-(1-amino-2-methylpropan-2-yl)pyridin-2-yl)-3-(1-(methylsulfonyl)piperidin-4-yl)-1H-pyrazol-5-yl)pyrazolo[1,5-a]pyrimidine-3-carboxamide] returned an IC50 of less than 0.1 µM.

In the case of `Cc1ccc(-n2nc(C3CCN(Cc4cscn4)CC3)cc2NC(=O)c2cnn3cccnc23)cc1` [Example 231, N-{1-(4-methylphenyl)-3-[1-(1,3-thiazol-4-ylmethyl)piperidin-4-yl]-1H-pyrazol-5-yl}pyrazolo[1,5-a]pyrimidine-3-carboxamide], the 50% inhibitory concentration (IC50) is less than 0.1 µM.

Regarding `CN1CCC(c2cc(NC(=O)c3cnn4cccnc34)n(-c3ccc(C4CC4)cn3)n2)CC1` [Example 147, N-(1-(5-cyclopropylpyridin-2-yl)-3-(1-methylpiperidin-4-yl)-1H-pyrazol-5-yl)pyrazolo[1,5-a]pyrimidine-3-carboxamide], the concentration for half-maximal inhibition (IC50) was less than 0.1 µM.

With `Cc1ccc(-n2nc(C3CCC(=O)CC3)cc2NC(=O)c2cnn3cccnc23)cc1` [Example 1, N-(3-(4-oxocyclohexyl)-1-p-tolyl-1H-pyrazol-5-yl)pyrazolo[1,5-a]pyrimidine-3-carboxamide], the IC50 was less than 0.1 µM.

`Cc1ccc(-n2nc(C3CCN(C4CCOCC4)CC3)cc2NC(=O)c2cnn3cc(Br)cnc23)cc1` [Example 110, 6-bromo-N-(3-(1-(tetrahydro-2H-pyran-4-yl)piperidin-4-yl)-1-(p-tolyl)-1H-pyrazol-5-yl)pyrazolo[1,5-a]pyrimidine-3-carboxamide] registered an IC50 of less than 0.1 µM.

The same experiment, now with this note: 100 μM ATP, 30 minutes at 25° C.; μM.
For `Cc1ccc(-n2nc(C3CN(Cc4ccn[nH]4)C3)cc2NC(=O)c2cnn3cccnc23)cc1` [Example 306, N-{1-(4-methylphenyl)-3-[1-(1H-pyrazol-5-ylmethyl)azetidin-3-yl]-1H-pyrazol-5-yl}pyrazolo[1,5-a]pyrimidine-3-carboxamide], the IC50 was less than 1 µM.

As to `Cc1ccc(-n2nc(C3COCCN3)cc2NC(=O)c2cnn3cccnc23)cc1` (stereo not shown) [Example 79, N-(3-(morpholin-3-yl)-1-(p-tolyl)-1H-pyrazol-5-yl)pyrazolo[1,5-a]pyrimidine-3-carboxamide], the 50% inhibitory concentration (IC50) was less than 1 µM.

With `CCCCS(=O)(=O)N1CCC(c2cc(NC(=O)c3cnn4cccnc34)n(-c3ccc(C)cc3)n2)CC1` [Example 369, N-{3-[1-(butylsulfonyl)piperidin-4-yl]-1-(4-methylphenyl)-1H-pyrazol-5-yl}pyrazolo[1,5-a]pyrimidine-3-carboxamide], the 50% inhibitory concentration (IC50) is less than 1 µM.

On to `COCCOC(=O)N1CC(N2CCC(c3cc(NC(=O)c4cnn5cccnc45)n(-c4ccc(C)cc4)n3)CC2)C1` [Example 242, 2-methoxyethyl 3-(4-{1-(4-methylphenyl)-5-[(pyrazolo[1,5-a]pyrimidin-3-ylcarbonyl)amino]-1H-pyrazol-3-yl}piperidin-1-yl)azetidine-1-carboxylate], for which the half-maximal inhibitory concentration (IC50) is less than 1 µM.

On to `Cc1ccc(-n2nc(C3CN(Cc4cocn4)C3)cc2NC(=O)c2cnn3cccnc23)cc1` [Example 318, N-{1-(4-methylphenyl)-3-[1-(1,3-oxazol-4-ylmethyl)azetidin-3-yl]-1H-pyrazol-5-yl}pyrazolo[1,5-a]pyrimidine-3-carboxamide], for which the 50% inhibitory concentration (IC50) is less than 1 µM.

Compound `Cc1ccc(-n2nc(C3CCN(C4CCN(C)CC4)CC3)cc2NC(=O)c2cnn3cccnc23)cc1` [Example 205] came in with an IC50 greater than 1 µM.

As for `CCNC(=O)N1CC(N2CCC(c3cc(NC(=O)c4cnn5cccnc45)n(-c4ccc(C)cc4)n3)CC2)C1` [Example 237, N-[3-{1-[1-(ethylcarbamoyl)azetidin-3-yl]piperidin-4-yl}-1-(4-methylphenyl)-1H-pyrazol-5-yl]pyrazolo[1,5-a]pyrimidine-3-carboxamide], the IC50 is less than 1 µM.

The compound `Cc1ccc(-n2nc(C3CCN(S(=O)(=O)c4cccc(C(F)(F)F)c4)CC3)cc2NC(=O)c2cnn3cccnc23)cc1` [Example 371, N-[1-(4-methylphenyl)-3-(1-{[3-(trifluoromethyl)phenyl]sulfonyl}piperidin-4-yl)-1H-pyrazol-5-yl]pyrazolo[1,5-a]pyrimidine-3-carboxamide] had a half-maximal inhibitory concentration (IC50) greater than 1 µM.

In turn, `Cc1cccc(-n2nc(C3CCN(S(=O)(=O)C4CC4)CC3)cc2NC(=O)c2cnn3cccnc23)c1` [Example 21, N-(3-(1-(cyclopropylsulfonyl)piperidin-4-yl)-1-(m-tolyl)-1H-pyrazol-5-yl)pyrazolo[1,5-a]pyrimidine-3-carboxamide] yielded an IC50 of less than 1 µM.

Compound `O=C(Nc1cc(C2CCNCC2)nn1-c1cc(F)cc(F)c1)c1cnn2cccnc12` [Example 67, N-(1-(3,5-difluorophenyl)-3-(piperidin-4-yl)-1H-pyrazol-5-yl)pyrazolo[1,5-a]pyrimidine-3-carboxamide] yielded an IC50 greater than 1 µM.

With `Cc1ccc(-n2nc(-c3c(F)cccc3OCc3ccccc3)cc2NC(=O)c2cnn3cccnc23)cc1` [Example 339, N-{3-[2-(benzyloxy)-6-fluorophenyl]-1-(4-methylphenyl)-1H-pyrazol-5-yl}pyrazolo[1,5-a]pyrimidine-3-carboxamide], the IC50 was less than 1 µM.

Take `Cc1ccc(-n2nc(C3CCN(S(=O)(=O)Cc4ccncc4)CC3)cc2NC(=O)c2cnn3cccnc23)cc1` [Example 358, N-[1-(4-methylphenyl)-3-{1-[(pyridin-4-ylmethyl)sulfonyl]piperidin-4-yl}-1H-pyrazol-5-yl]pyrazolo[1,5-a]pyrimidine-3-carboxamide]: the concentration for half-maximal inhibition (IC50) is less than 1 µM.

As to `Cc1ccc(-n2nc(C3CCN(C4CN(S(=O)(=O)C5CC5)C4)CC3)cc2NC(=O)c2cnn3cccnc23)cc1` [Example 245, N-[3-{1-[1-(cyclopropylsulfonyl)azetidin-3-yl]piperidin-4-yl]-1-(4-methylphenyl)-1H-pyrazol-5-yl}pyrazolo[1,5-a]pyrimidine-3-carboxamide], the 50% inhibitory concentration (IC50) is less than 1 µM.

`Cc1ccc(-n2nc(C3CCN(C)CC3)cc2NC(=O)c2cnn3cccnc23)cc1` [Example 36, N-(3-(1-methylpiperidin-4-yl)-1-(p-tolyl)-1H-pyrazol-5-yl)pyrazolo[1,5-a]pyrimidine-3-carboxamide]: the IC50 was less than 1 µM.

For `Cc1ccc(-n2nc(C3CCCN(Cc4nccs4)C3)cc2NC(=O)c2cnn3cccnc23)cc1` (stereo not shown) [Example 298, N-{1-(4-methylphenyl)-3-[1-(1,3-thiazol-2-ylmethyl)piperidin-3-yl]-1H-pyrazol-5-yl}pyrazolo[1,5-a]pyrimidine-3-carboxamide], the half-maximal inhibitory concentration (IC50) is less than 1 µM.

Compound `Cc1ccc(-n2nc(C3CCN(S(=O)(=O)c4ccccc4F)CC3)cc2NC(=O)c2cnn3cccnc23)cc1` [Example 378, N-[3-{1-[(2-fluorophenyl)sulfonyl]piperidin-4-yl}-1-(4-methylphenyl)-1H-pyrazol-5-yl]pyrazolo[1,5-a]pyrimidine-3-carboxamide] yielded a half-inhibitory concentration (IC50) of less than 1 µM.
